According to patent US20240393292A1, “ALLERGY ANTIGEN AND EPITOPE THEREOF” (HOYU CO., LTD., priority 2019, published 2024):

test system: IgE antibody present in the serum of a wheat-allergic patient; experiment: Wheat epitope mapping (1): peptide array of overlapping 15-amino-acid peptides, chemiluminescence; format: binding, human; details: bound = chemiluminescence value minus N2nd value of 5 non-wheat-allergic subjects at least 35,000; serum of 49 patients
Method: Epitope mapping was carried out using a library of overlapping peptides (length: 15 amino acids) corresponding to the amino acid sequences identified as allergy components of wheat. Specifically, the library of overlapping peptides was prepared on the basis of the amino acid sequences of SEQ ID NOs: 2, 4, 6, 8, 10, 12, 14, 16, 18, 20, 22, 24, 26 and 28.
The peptides to be synthesized were shifted by 10 amino acids.
For preparation of peptide arrays, the Intavis CelluSpots™ technique was used. Specifically, the peptide arrays were prepared by the following procedure: (1) synthesizing peptides of interest on amino-modified cellulose disks using an automated chemical synthesis apparatus (Intavis MultiPep RS), (2) dissolving the amino-modified cellulose disks to obtain a cellulose-bound peptide solution, and (3) spotting the cellulose-bound peptides onto coated glass slides. The details of each procedure are as described below.
Peptide synthesis was carried out in incremental steps through 9-fluorenylmethoxycarbonyl (Fmoc) chemical reaction on amino-modified cellulose disks in 384-well synthesis plates. Specifically, amino acids in which a Fmoc group is bonded to an amino group were activated in a solution of N,N′-diisopropylcarbodiimide (DIC) and 1-hydroxybenzotriazole (HOBt) in dimethylformamide (DMF) and added dropwise to the cellulose disks so that the Fmoc group-bound amino acids were bound to the amino groups on the cellulose disks (coupling). Unreacted amino groups were capped with acetic anhydride and washed with DMF. Furthermore, the Fmoc groups were eliminated from the amino groups of the amino acids bound to the amino groups on the cellulose disks by treatment with piperidine and washing with DMF. The amino acids bound to the amino groups on the cellulose disks were repetitively subjected to the coupling, the capping, and the Fmoc group elimination described above to elongate the amino terminus for peptide synthesis.
The peptides-bound cellulose disks of interest obtained above in the subsection titled “(1) Synthesis of peptide” were transferred to 96-well plates and treated with a side chain deprotection mixed solution of trifluoroacetic acid (TFA), dichloromethane, triisopropylsilane (TIPS), and water for deprotection of amino acid side chains. Then, the deprotected cellulose-bound peptides were dissolved in a mixed solution of TFA, […] acid (TFMSA), TIPS, and water and precipitated in […] methyl ether (TBME), and the precipitate was resuspended in dimethyl sulfoxide (DMSO) and mixed with a mixed solution of NaCl, sodium citrate, and water to obtain a peptide solution for slide spotting.
The peptide solution for slide spotting obtained above in the subsection titled “(2) Dissolution of amino-modified cellulose disk” was spotted onto Intavis CelluSpots™ slides using Intavis Slide Spotting Robot, and the slides were dried to prepare peptide arrays.
The presence or absence of binding, to each peptide fragment, of an IgE antibody present in the serum of a wheat-allergic patient was measured through antigen-antibody reaction using the peptide arrays. […]

Binding of patient-specific IgE antibodies to 15-residue peptide, confirmed to bind:
SEQ ID NO: 1508: common 15-residue epitope sequence of polypeptide (E23) (QVPLVQQQQFLGQQQ; REGION 1..15: note = epitope)
SEQ ID NO: 1566: common 15-residue epitope sequence of polypeptide (E24) (PQQPQQPFPQTQQPQ; REGION 1..15: note = epitope)
SEQ ID NO: 1598: common 15-residue epitope sequence of polypeptide (E25) (PQQPAQLEAIRSLVL; REGION 1..15: note = epitope)
SEQ ID NO: 1608: common 15-residue epitope sequence of polypeptide (E26) (VGYNPDKVPFVPISG; REGION 1..15: note = epitope)
SEQ ID NO: 1685: common 15-residue epitope sequence of polypeptide (E27) (PAKEAANFTSQVIIM; REGION 1..15: note = epitope)
SEQ ID NO: 1753: common 15-residue epitope sequence of polypeptide (E28) (VKEVSSYLKKVGYNP; REGION 1..15: note = epitope)
SEQ ID NO: 1789: common 15-residue epitope sequence of polypeptide (E29) (SGKELEALPKFLKNG; REGION 1..15: note = epitope)
SEQ ID NO: 1836: common 15-residue epitope sequence of polypeptide (E30) (VIAEYTVRTLQRTVP; REGION 1..15: note = epitope)
SEQ ID NO: 1895: common 15-residue epitope sequence of polypeptide (E31) (QVPLVQQQQFPGQQQ; REGION 1..15: note = epitope)
SEQ ID NO: 1977: common 15-residue epitope sequence of polypeptide (E32) (DPTGAKVTKAAIKKK; REGION 1..15: note = epitope)
SEQ ID NO: 2004: common 15-residue epitope sequence of polypeptide (E33) (STGTIGKRFASINVE; REGION 1..15: note = epitope)
SEQ ID NO: 2027: common 15-residue epitope sequence of polypeptide (E34) (TPGALQYLSGVILFE; REGION 1..15: note = epitope)
SEQ ID NO: 2068: common 15-residue epitope sequence of polypeptide (E35) (PPYCTIAPFGIFGTN; REGION 1..15: note = epitope)
SEQ ID NO: 2154: common 15-residue epitope sequence of polypeptide (E36) (YSQPQQPISQQQQQQ; REGION 1..15: note = epitope)
SEQ ID NO: 2217: common 15-residue epitope sequence of polypeptide (E37) (VSRLLRGIRNYRVAI; REGION 1..15: note = epitope)
SEQ ID NO: 2265: common 15-residue epitope sequence of polypeptide (E38) (LGGIDKRVIERFEKE; REGION 1..15: note = epitope)
SEQ ID NO: 2309: common 15-residue epitope sequence of polypeptide (E39) (QSRYDAIRAIIYSIV; REGION 1..15: note = epitope)
SEQ ID NO: 2342: common 15-residue epitope sequence of polypeptide (E40) (HDIDRCAYVTEIVLA; REGION 1..15: note = epitope)
SEQ ID NO: 2419: common 15-residue epitope sequence of polypeptide (E41) (QSTLKAWSGKTENEE; REGION 1..15: note = epitope)
SEQ ID NO: 2491: common 15-residue epitope sequence of polypeptide (E42) (SSQVSFQPSQLNPQA; REGION 1..15: note = epitope)
SEQ ID NO: 2545: common 15-residue epitope sequence of polypeptide (E43) (LQQSTYQLVQQLCCQ; REGION 1..15: note = epitope)
SEQ ID NO: 2613: common 15-residue epitope sequence of polypeptide (E44) (SAKPLLASLSKRVLT; REGION 1..15: note = epitope)
SEQ ID NO: 2631: common 15-residue epitope sequence of polypeptide (E45) (RFEKEAAEMNKRSFK; REGION 1..15: note = epitope)
SEQ ID NO: 2674: common 15-residue epitope sequence of polypeptide (E46) (YKGPTLLEALDQINE; REGION 1..15: note = epitope)
SEQ ID NO: 2701: common 15-residue epitope sequence of polypeptide (E47) (VYKIGGIGTVPVGRV; REGION 1..15: note = epitope)
SEQ ID NO: 2774: common 15-residue epitope sequence of polypeptide (E48) (FLKNGDAGIVKMIPT; REGION 1..15: note = epitope)
SEQ ID NO: 2809: common 15-residue epitope sequence of polypeptide (E49) (VYSANTHRSKWFRVV; REGION 1..15: note = epitope)
SEQ ID NO: 2830: common 15-residue epitope sequence of polypeptide (E50) (YIVVEGRDGYFEMAC; REGION 1..15: note = epitope)
